From PMC8639922, “KSHV transactivator-derived small peptide traps coactivators to attenuate MYC and inhibits leukemia and lymphoma cell growth” (Communications Biology, 2021)
Square brackets hold non-standard residues; d marks the D form. Peptide text beside a SMILES is read from it. Orn = NCCC[C@H](N)C(=O)O; βAla = NCCC(=O)O

Assays:
[1] = system: PEL-derived human cytokines; experiment: Olink INFLAMMATION panel, cytokines in ascites fluid of PEL xenograft; assay type: in vivo, mouse; parameters: key to IL8 / CXCL10 / FGF-19 / IL-12B / TRAIL / VEGFA / IL-17A / CST5 / IL-18R1 / HGF / ARTN / bNGF: NPX, log2-normalized protein expression; key to 4E-BP1 / TWEAK / LAP TGF-beta-1 / Beta-NGF / LAPTGFb-1 / TWAEK / 4EBP-1 / IL-8: log2-scale normalized protein expression (NPX) values
Protocol: Fig. 6 VGN50 inhibits BCBL-1 cell growth in xenograft mice. a PEL-xenograft. BCBL-1 cells (2 × 10^7 cells) were injected i.p. Peptide (10 mg/kg) was administrated i.p. daily and tumor growth was monitored by measurement of body weight (n = 6–9 mice per group). b Ascites volume and PEL cell counts. In a separate experiment, ascites volume and PEL cell counts in ascites fluid were measured at day 10. (n = 3–4 mice per group) c Induction of atrophy. BCBL-1 cells isolated from ascites fluid were measured for FSC-A and SSC-A by flow cytometry. […] (n = 3) d Expression of inflammatory cytokines. Principal component analysis based on expression levels of inflammatory cytokine contents in ascites fluid. e Cytokine heat map. Heatmap generated based on abundance of the indicated cytokines in ascites fluids. Ascites fluid was taken at day 10. a–c Data were analyzed using ordinary one-way Anova followed by Tukey’s multiple comparisons test.
Since PELs are frequently involved in effusions in multiple body cavities in human patients and the amounts of inflammatory cytokines in the effusion are strong prognostic factors, we also extracted ascites fluid and profiled it to see if the PEL cell-derived human cytokine profile was also altered by continued VGN50 treatment.
PEL-derived cytokine profiles in ascites were measured with Olink analysis service with the Olink INFLAMMATION panel using proximity extension technology, a high-throughput multiplex proteomic immunoassay. In short, the panel includes 92 immune-related proteins, primarily cytokines and chemokines. The assay utilizes epitope-specific binding and hybridization of a set of paired oligonucleotide antibody probes, which is subsequently amplified using quantitative PCR, resulting in log base 2-normalized protein expression (NPX) values. The data was processed and analyzed with Olink Insight Stat Analysis software.

BC-1 = experiment: Flow cytometry, cell proliferation (Ki67 staining); assay type: cell-based, human; conditions: BC-1, 24 h
Protocol: Leukoreduction system chambers (LRS) from healthy donors were purchased from Vitalant. Peripheral blood mononuclear cells (PBMCs) were prepared by a standard Ficoll gradient method. PBMCs along with THP-1 and BCBL-1 cell lines (2 × 10^6 cells/ml, 0.2 ml 10% FBS/RPMI/DMEM per well of a 96-well plate) were treated with various doses (0–256 μM) of either VGN50 peptide or control mutant peptide for 24 h. Cell death, apoptosis, and proliferation were analyzed by flow cytometry (BD Acuri) after intracellular staining with anti-humanKi67-Alexa488 (Biolegend, 1:100) along with the isotype control antibody, annexin-V-FITC with 7-AAD staining (Biolegend) according to the manufacture’s protocol, Live/dead Fixable Red Dead Cell staining kit (Invitrogen) according to the manufacture’s protocol, or MTT assay. Peptides were commercially synthesized (GenScript) with >90% purity with TFA removal. […]
Isotype control Anti-Ki67 antibody
S-Figure 3. Flow cytometry analyses […]
Repr esent at i ve FACS pl ot s wi t h ancest r y gat i ng st r at egy of Ki 67+ popul at i on f or
BCBL-1 and BC-1 cel l s t r eat ed wi t h PBS wi t h an i sot ype cont r ol ar e shown. Mean +/-SD of
Ki 67% of t ot al BCBL-1 and BC-1 cel l s anal yzed ar e shown i n Fi g. 2e.

CC(C)C[C@H](NC(=O)CCNC(=O)[C@H](CCCNC(=N)N)NC(=O)[C@H](CCCNC(=N)N)NC(=O)[C@H](CCCNC(=N)N)NC(=O)[C@H](CCCN)NC(=O)[C@H](CCCNC(=N)N)NC(=O)[C@H](CCCNC(=N)N)NC(=O)[C@H](CCCCN)NC(=O)[C@H](CCCCN)NC(=O)[C@H](N)CCCNC(=N)N)C(=O)N[C@@H](CO)C(=O)N[C@@H](CO)C(=O)N[C@@H](C)C(=O)N[C@@H](C)C(=O)N[C@@H](C)C(=O)NCC(=O)N[C@@H](CC(C)C)C(=O)N[C@@H](Cc1ccc(O)cc1)C(=O)N[C@@H](CCC(N)=O)C(=O)N[C@@H](CC(C)C)C(=O)N[C@@H](CC(=O)O)C(=O)N[C@H](C(=O)O)[C@@H](C)O [Mt-P] (H-[dR]KKRR[Orn]RRR[βAla]LSSAAAGLYQLDT-OH; N-terminus and C-terminus assumed)
4E-BP1 ([1]; sheet Fig.6d-e, animal 1): 11.1631 | ARTN ([1]; sheet Fig.6d-e, animal 1): 5.386 | Beta-NGF ([1]; sheet Fig.6d-e, animal 1): -0.391 | CST5 ([1]; sheet Fig.6d-e, animal 1): 1.859 | CXCL10 ([1]; sheet Fig.6d-e, animal 1): 13.3461 | FGF-19 ([1]; sheet Fig.6d-e, animal 1): 2.165 | HGF ([1]; sheet Fig.6d-e, animal 1): 6.396 | IL8 ([1]; sheet Fig.6d-e, animal 1): 0.86 | IL-12B ([1]; sheet Fig.6d-e, animal 1): 2.007 | IL-17A ([1]; sheet Fig.6d-e, animal 1): 3.739 | IL-18R1 ([1]; sheet Fig.6d-e, animal 1): 4.131 | LAP TGF-beta-1 ([1]; sheet Fig.6d-e, animal 1): 6.199 | TRAIL ([1]; sheet Fig.6d-e, animal 1): 1.379 | TWEAK ([1]; sheet Fig.6d-e, animal 1): 8.018 | VEGFA ([1]; sheet Fig.6d-e, animal 1): 14.7314 | 4E-BP1 ([1]; sheet Fig.6d-e, animal 2): 11.0835 | ARTN ([1]; sheet Fig.6d-e, animal 2): 5.243 | Beta-NGF ([1]; sheet Fig.6d-e, animal 2): -0.4548 | CST5 ([1]; sheet Fig.6d-e, animal 2): 2.027 | CXCL10 ([1]; sheet Fig.6d-e, animal 2): 13.3201 | FGF-19 ([1]; sheet Fig.6d-e, animal 2): 2.0905 | HGF ([1]; sheet Fig.6d-e, animal 2): 6.305 | IL8 ([1]; sheet Fig.6d-e, animal 2): 0.7089 | IL-12B ([1]; sheet Fig.6d-e, animal 2): 2.204 | IL-17A ([1]; sheet Fig.6d-e, animal 2): 3.881 | IL-18R1 ([1]; sheet Fig.6d-e, animal 2): 4.133 | LAP TGF-beta-1 ([1]; sheet Fig.6d-e, animal 2): 6.253 | TRAIL ([1]; sheet Fig.6d-e, animal 2): 1.569 | TWEAK ([1]; sheet Fig.6d-e, animal 2): 8.091 | VEGFA ([1]; sheet Fig.6d-e, animal 2): 14.6793 | 4E-BP1 ([1]; sheet Fig.6d-e, animal 3): 10.8123 | ARTN ([1]; sheet Fig.6d-e, animal 3): 5.723 | Beta-NGF ([1]; sheet Fig.6d-e, animal 3): -0.3222 | CST5 ([1]; sheet Fig.6d-e, animal 3): 2.133 | CXCL10 ([1]; sheet Fig.6d-e, animal 3): 13.0806 | FGF-19 ([1]; sheet Fig.6d-e, animal 3): 2.37 | HGF ([1]; sheet Fig.6d-e, animal 3): 6.6 | IL8 ([1]; sheet Fig.6d-e, animal 3): 0.7009 | IL-12B ([1]; sheet Fig.6d-e, animal 3): 2.082 | IL-17A ([1]; sheet Fig.6d-e, animal 3): 4.127 | IL-18R1 ([1]; sheet Fig.6d-e, animal 3): 4.157 | LAP TGF-beta-1 ([1]; sheet Fig.6d-e, animal 3): 6.359 | TRAIL ([1]; sheet Fig.6d-e, animal 3): 1.603 | TWEAK ([1]; sheet Fig.6d-e, animal 3): 8.37 | VEGFA ([1]; sheet Fig.6d-e, animal 3): 14.8087 | 4EBP-1 ([1]; sheet SFig5, animal 1): 11.7332 | ARTN ([1]; sheet SFig5, animal 1): 5.386 | CST5 ([1]; sheet SFig5, animal 1): 1.859 | FGF-19 ([1]; sheet SFig5, animal 1): 2.165 | HGF ([1]; sheet SFig5, animal 1): 4.42 | IL-8 ([1]; sheet SFig5, animal 1): 0.86 | IL-12B ([1]; sheet SFig5, animal 1): 2.007 | IL-17A ([1]; sheet SFig5, animal 1): 1.782 | IL-18R1 ([1]; sheet SFig5, animal 1): 4.131 | LAPTGFb-1 ([1]; sheet SFig5, animal 1): 4.365 | TRAIL ([1]; sheet SFig5, animal 1): 1.379 | TWAEK ([1]; sheet SFig5, animal 1): 5.713 | VEGFA ([1]; sheet SFig5, animal 1): 13.2543 | bNGF ([1]; sheet SFig5, animal 1): -0.391 | 4EBP-1 ([1]; sheet SFig5, animal 2): 11.7927 | ARTN ([1]; sheet SFig5, animal 2): 5.243 | CST5 ([1]; sheet SFig5, animal 2): 2.027 | CXCL10 ([1]; sheet SFig5, animal 2): 11.2953 | FGF-19 ([1]; sheet SFig5, animal 2): 2.0905 | HGF ([1]; sheet SFig5, animal 2): 4.269 | IL-8 ([1]; sheet SFig5, animal 2): 0.7089 | IL-12B ([1]; sheet SFig5, animal 2): 2.204 | IL-17A ([1]; sheet SFig5, animal 2): 1.942 | IL-18R1 ([1]; sheet SFig5, animal 2): 4.133 | LAPTGFb-1 ([1]; sheet SFig5, animal 2): 4.29 | TRAIL ([1]; sheet SFig5, animal 2): 1.569 | TWAEK ([1]; sheet SFig5, animal 2): 5.701 | VEGFA ([1]; sheet SFig5, animal 2): 13.2545 | bNGF ([1]; sheet SFig5, animal 2): -0.4548 | 4EBP-1 ([1]; sheet SFig5, animal 3): 11.484 | ARTN ([1]; sheet SFig5, animal 3): 5.723 | CST5 ([1]; sheet SFig5, animal 3): 2.133 | CXCL10 ([1]; sheet SFig5, animal 3): 11.1526 | FGF-19 ([1]; sheet SFig5, animal 3): 2.37 | HGF ([1]; sheet SFig5, animal 3): 4.697 | IL-8 ([1]; sheet SFig5, animal 3): 0.7009 | IL-12B ([1]; sheet SFig5, animal 3): 2.082 | IL-17A ([1]; sheet SFig5, animal 3): 2.371 | IL-18R1 ([1]; sheet SFig5, animal 3): 4.157 | LAPTGFb-1 ([1]; sheet SFig5, animal 3): 4.688 | TRAIL ([1]; sheet SFig5, animal 3): 1.603 | TWAEK ([1]; sheet SFig5, animal 3): 6.152 | VEGFA ([1]; sheet SFig5, animal 3): 13.6674 | bNGF ([1]; sheet SFig5, animal 3): -0.3222 | Ki67% (BC-1; replicate 1): 43.3912% | Ki67% (BC-1; replicate 2): 42.2259% | Ki67% (BC-1; replicate 3): 43.3434%
